Data as given in the supplement of paper PMC10307832.

compound: CN1CCN(CC1)C2=CC(=C(C=C2)NC3=NC(=C(S3)C(=O)C4=C(C=CC=C4Cl)Cl)N)OC [XMD14-99] + N=C(N)NC(=N)NCCc1ccccc1 [Phenformin] (partner 250 µM); test: relative viability (nuclei count vs DMSO), 5 days (fraction); higher = more cells survive; conditions: first compound 8 µM
Procedure, shortened: (§1)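 Values are medians from duplicate plates. Each reflects relative viability, defined as the nuclei count of treated wells over that of vehicle wells. Lung cancer cell lines in 1536-well plates were pin-tool dosed one day after seeding with one drug alone or with a fixed anchor-drug dose plus five library-drug doses (not always all listed) in √10 steps, then fixed, stained and imaged at 4× after 5 days.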

Compared with H3255, COR-L23 is lower in relative viability: 0.335 for the first, 0.301 for the second.

First: COR-L 105
Second: LOU-NH91
The relative viability of the first is lower: 0.371 for the first, 0.556 for the second.

Compared with ChaGo-K-1, NCI-H2170 is lower in relative viability: 0.388 for the first, 0.3 for the second.

Going from NCI-H3122 to HOP-62, the relative viability rises from 0.237 to 0.547.

First: HCC-44
Second: A549
The relative viability of the first is higher: 0.168 for the first, 0.133 for the second.

Going from SW 900 to LU99A, the relative viability rises from 0.402 to 0.603.

First: BEN
Second: HARA
The relative viability of the first is lower: 0.257 for the first, 0.324 for the second.

Going from HCC-78 to NCI-H441, the relative viability rises from 0.451 to 0.662.

Compared with LCLC-97TM1, NCI-H2023 is lower in relative viability: 0.355 for the first, 0.245 for the second.

For NCI-H1563, the relative viability was 0.585.

compound: CN1CCN(CC1)C2=CC(=C(C=C2)NC3=NC(=C(S3)C(=O)C4=C(C=CC=C4Cl)Cl)N)OC [XMD14-99] + CC(=O)c1c(C)c2cnc(Nc3ccc(N4CCNCC4)cn3)nc2n(C2CCCC2)c1=O [Palbociclib] (partner 0.5 µM); test: as above; conditions: first compound 0.08 µM
Procedure, shortened: as §1

First: NCI-H522
Second: NCI-H838
The relative viability of the first is higher: 0.858 for the first, 0.221 for the second.

First: NCI-H1650
Second: NCI-H2009
The relative viability of the first is higher: 0.389 for the first, 0.358 for the second.

Going from NCI-H1993 to PC-14, the relative viability falls from 0.7 to 0.567.

First: LCLC-103H
Second: NCI-H2228
The relative viability of the first is lower: 0.487 for the first, 0.749 for the second.

Going from EMC-BAC-2 to NCI-H2087, the relative viability falls from 0.523 to 0.198.

First: HCC-366
Second: NCI-H1666
The relative viability of the first is lower: 0.452 for the first, 0.626 for the second.

First: NCI-H647
Second: LK-2
The relative viability of the first is lower: 0.408 for the first, 0.572 for the second.

Compared with NCI-H2126, NCI-H2342 is higher in relative viability: 0.326 for the first, 0.564 for the second.

Compared with SK-MES-1, H3255 is lower in relative viability: 0.345 for the first, 0.317 for the second.

Going from COR-L23 to COR-L 105, the relative viability rises from 0.266 to 0.402.

Going from LOU-NH91 to ChaGo-K-1, the relative viability rises from 0.509 to 0.972.

Going from NCI-H2170 to NCI-H3122, the relative viability falls from 0.426 to 0.197.

Compared with HOP-62, HCC-44 is higher in relative viability: 0.435 for the first, 1.03 for the second.

First: SW 900
Second: LU99A
The relative viability of the first is higher: 0.57 for the first, 0.382 for the second.

Compared with BEN, HARA is lower in relative viability: 0.489 for the first, 0.291 for the second.

First: NCI-H1648
Second: HCC-78
The relative viability of the first is lower: 0.261 for the first, 0.487 for the second.

Going from NCI-H441 to LCLC-97TM1, the relative viability falls from 0.223 to 0.197.

NCI-H2023 showed a relative viability of 0.342.

same assay, conditions: first compound 0.8 µM

First: NCI-H522
Second: NCI-H838
The relative viability of the first is higher: 1.06 for the first, 0.217 for the second.

Compared with NCI-H1650, NCI-H2009 is lower in relative viability: 0.328 for the first, 0.319 for the second.

Compared with NCI-H1993, PC-14 is lower in relative viability: 0.682 for the first, 0.527 for the second.

Compared with LCLC-103H, NCI-H2228 is higher in relative viability: 0.491 for the first, 0.56 for the second.

Going from EMC-BAC-2 to NCI-H2087, the relative viability falls from 0.516 to 0.279.

Going from HCC-366 to NCI-H1666, the relative viability rises from 0.383 to 0.564.

Compared with NCI-H647, LK-2 is higher in relative viability: 0.459 for the first, 0.804 for the second.

First: NCI-H2126
Second: NCI-H2342
The relative viability of the first is lower: 0.337 for the first, 0.614 for the second.

Going from SK-MES-1 to H3255, the relative viability falls from 0.343 to 0.303.

Compared with COR-L23, COR-L 105 is higher in relative viability: 0.295 for the first, 0.418 for the second.

Going from LOU-NH91 to ChaGo-K-1, the relative viability rises from 0.548 to 0.93.

Going from NCI-H2170 to NCI-H3122, the relative viability falls from 0.4 to 0.167.

Compared with HOP-62, HCC-44 is higher in relative viability: 0.41 for the first, 0.969 for the second.

Going from SW 900 to LU99A, the relative viability falls from 0.567 to 0.415.

First: BEN
Second: HARA
The relative viability of the first is higher: 0.468 for the first, 0.25 for the second.

Compared with NCI-H1648, HCC-78 is higher in relative viability: 0.267 for the first, 0.54 for the second.

Going from NCI-H441 to LCLC-97TM1, the relative viability rises from 0.19 to 0.239.

NCI-H2023 gave a relative viability of 0.409.

same assay, conditions: first compound 2.53 µM

First: NCI-H522
Second: NCI-H838
The relative viability of the first is higher: 0.906 for the first, 0.226 for the second.

Going from NCI-H1650 to NCI-H2009, the relative viability falls from 0.345 to 0.26.

Compared with NCI-H1993, PC-14 is lower in relative viability: 0.533 for the first, 0.5 for the second.

Compared with LCLC-103H, NCI-H2228 is higher in relative viability: 0.421 for the first, 0.774 for the second.

First: EMC-BAC-2
Second: NCI-H2087
The relative viability of the first is higher: 0.509 for the first, 0.236 for the second.

Compared with HCC-366, NCI-H1666 is higher in relative viability: 0.346 for the first, 0.63 for the second.

Going from NCI-H647 to LK-2, the relative viability rises from 0.505 to 0.655.

First: NCI-H2126
Second: NCI-H2342
The relative viability of the first is lower: 0.37 for the first, 0.576 for the second.

Going from SK-MES-1 to H3255, the relative viability falls from 0.372 to 0.296.

Going from COR-L23 to COR-L 105, the relative viability rises from 0.299 to 0.433.

Going from LOU-NH91 to ChaGo-K-1, the relative viability rises from 0.575 to 0.975.

First: NCI-H2170
Second: NCI-H3122
The relative viability of the first is higher: 0.425 for the first, 0.213 for the second.

Compared with HOP-62, HCC-44 is higher in relative viability: 0.538 for the first, 1 for the second.

First: SW 900
Second: LU99A
The relative viability of the first is higher: 0.514 for the first, 0.396 for the second.

Compared with BEN, HARA is lower in relative viability: 0.478 for the first, 0.281 for the second.

First: NCI-H1648
Second: HCC-78
The relative viability of the first is lower: 0.268 for the first, 0.557 for the second.

Going from NCI-H441 to LCLC-97TM1, the relative viability rises from 0.225 to 0.321.

NCI-H2023 showed a relative viability of 0.374.

same assay, conditions: first compound 8 µM

Compared with NCI-H522, NCI-H838 is lower in relative viability: 1.05 for the first, 0.213 for the second.

Going from NCI-H1650 to NCI-H2009, the relative viability falls from 0.306 to 0.236.

First: NCI-H1993
Second: PC-14
The relative viability of the first is higher: 0.625 for the first, 0.24 for the second.

Compared with LCLC-103H, NCI-H2228 is lower in relative viability: 0.481 for the first, 0.278 for the second.

First: EMC-BAC-2
Second: NCI-H2087
The relative viability of the first is higher: 0.481 for the first, 0.246 for the second.

Going from HCC-366 to NCI-H1666, the relative viability rises from 0.306 to 0.666.

Compared with NCI-H647, LK-2 is higher in relative viability: 0.364 for the first, 0.611 for the second.

Going from NCI-H2126 to NCI-H2342, the relative viability rises from 0.362 to 0.544.

Going from SK-MES-1 to H3255, the relative viability rises from 0.223 to 0.295.

Going from COR-L23 to COR-L 105, the relative viability rises from 0.18 to 0.344.

Going from LOU-NH91 to ChaGo-K-1, the relative viability rises from 0.499 to 0.873.

Going from NCI-H2170 to NCI-H3122, the relative viability falls from 0.395 to 0.147.

First: HOP-62
Second: HCC-44
The relative viability of the first is lower: 0.443 for the first, 1.01 for the second.

Going from SW 900 to LU99A, the relative viability falls from 0.359 to 0.328.

Going from BEN to HARA, the relative viability falls from 0.476 to 0.204.

Going from NCI-H1648 to HCC-78, the relative viability rises from 0.289 to 0.445.

Compared with NCI-H441, LCLC-97TM1 is lower in relative viability: 0.22 for the first, 0.203 for the second.

NCI-H2023 gave a relative viability of 0.264.
